Assay results reported in PubChem BioAssay AID1963835 (Molecular Pharmacology Branch, DTP, NCI, 2024).
Several values for one entry are separate records, joined by “and”; a condition that tells them apart may be missing. Equal entries are not always repeated.

Test system: 699152-130-R-J1-PDC complex spheroid viability
Assay: Anticancer human tumor 699152-130-R-J1-PDC patient-derived pancreatic carcinoma cell line growth inhibition [POLQ]
Conditions: for viability, T/C: stronger effect = lower value; for IC50: curve of compound
Protocol: Multicellular complex tumor spheroid response to Polymerase (POL) inhibitors (novobiocin, ART-558, RP6685) in combination with a variety of drugs and investigational agents in selected tumor cell lines
The POL inhibitors (novobiocin, ART-558, and RP6685) were evaluated both individually and in combination with standard of care and investigational anticancer small molecules within a complex spheroid model of solid tumors. . Complex spheroids include a stromal component modeled by human endothelial cells (HUVEC) and fibroblasts modeled by human mesenchymal stem cells (MSCs). The concentration ranges selected for each drug and investigational agent were based upon clinically achievable concentrations if the clinical Cmax of the agent was known.
Compounds. The drugs and investigational agents: novobiocin (NSC847541), ART-558 (NSC835418), RP-6685 (NSC848927), peposertib (NSC802822), ceralasertib (NSC780249), elimusertib (NSC800525), camonsertib (NSC841442), AZD-1390 (NSC803789), olaparib (NSC753686), talazoparib (NSC767125), rucaparib (NSC756644), sotorasib (NSC818433), MRTX-1133 (NSC836407), SN-38 (NSC673596), topotecan (NSC609699), epotoside (NSC141540), doxorubicin (NSC123127), gemcitabine (NSC613327), 5-fluorouracil (NSC19893), paclitaxel (NSC125973), vemurafenib (NSC761431), MSA-2 (NSC828583), SN-011 (NSC837082), adavosertib (NSC754352), prexasertib (NSC758257), carboplatin (NSC241240) and oxaliplatin (NSC266046), were obtained from the National Cancer Institute (NCI) Developmental Therapeutics Program Chemical Repository (21). The FDA-approved anticancer drug set is available from the Developmental Therapeutics Program at https://dtp.cancer.gov/organization/dscb/obtaining/. […] The stock solutions were prepared in dimethyl sulfoxide (DMSO, Sigma-Aldrich, St. Louis, MO, cat. D2650), except for the platinum compounds which were prepared in saline (Quality Biological, Gaithersburg, MD, cat. 114-055-101), at 800-fold the tested concentration and stored at -70 degrees C prior to their use. All drugs and investigational agents were tested over a range starting from a high concentration at or near the clinical Cmax and decreasing in half-log increments. If the clinical Cmax for an agent had not been determined, the highest concentration tested was 10 microM, except for SN-38, which was tested at a high concentration of 1 microM.
Cell Culture. All cells were maintained in an incubator at 37 degrees C and 5% CO2 with 95% humidity. The PDC lines were cultured according to standard operating procedures established by the NCI PDMR (https://pdmr.cancer.gov). Table 3 of the manuscript, lists the cell lines along with the number of the three cell types plated to form the mct-spheroids and media for tumor cell growth. After thawing, all PDC lines, except 997537-175-T-J1-PDC and 415267-285-R-J2-PDC, were cultured in Matrigel-coated flasks prepared with a working solution of 1X Ham's F-12 nutrient mix, without supplementation (Thermo Fisher Scientific, cat. 11765054), 100 U/mL penicillin-streptomycin (Thermo Fisher Scientific, cat. 15140122), and 2.5% Matrigel (Corning Inc., Corning, NY, cat. 354248) for the first three passages. The two PDC lines 997537-175-T-J1-PDC and 415267-285-R-J2-PDC were cultured on uncoated flasks. The 857933-349-R-J2-PDC line was cultured in 6C/Colon 1B media containing advanced DMEM/F-12 (Thermo Fisher Scientific, cat. 12634028), 10 mM HEPES (Thermo Fisher Scientific, cat. 15630080), 1X GlutaMAX supplement (Thermo Fisher Scientific, cat. 35050061), 0.1 mg/mL primocin (InvivoGen, San Diego, CA, cat. ant-pm-2), 10% defined fetal bovine serum, heat inactivated (HyClone Laboratories Inc., Logan, UT, cat. SH30070.03HI), 50% L-WRN conditioned media (ATCC, cat. CRL-3276), 1.25 mM N-Acetyl-L-cysteine (Sigma-Aldrich, cat. A9165), 10 mM nicotinamide (Sigma-Aldrich, cat. N0636), 1X B-27 supplement (Thermo Fisher Scientific, cat. 17504044), 1X N-2 supplement (Thermo Fisher Scientific, cat. […]
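Note: spheroids exposed to agents for 7 days before viability reading.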
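Throughout, for viability, T/C: percent of DMSO vehicle control viability so 100% = vehicle and 0% = no viable signal.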

Row | Structure (SMILES) | viability, T/C (compound 0.0316 µM) | viability, T/C (compound 0.1 µM) | viability, T/C (compound 0.316 µM) | viability, T/C (compound 1 µM) | viability, T/C (compound 3.16 µM) | viability, T/C (compound 10 µM) | IC50 | viability, T/C (compound 0.00316 µM) | viability, T/C (compound 0.01 µM) | viability, T/C (compound 0.00949 µM) | viability, T/C (compound 0.03 µM) | viability, T/C (compound 0.0949 µM) | viability, T/C (compound 0.3 µM) | viability, T/C (compound 0.949 µM) | viability, T/C (compound 3 µM) | viability, T/C (compound 0.000316 µM) | viability, T/C (compound 0.001 µM)
1 | C#Cc1c(F)ccc2cc(O)cc(-c3ncc4c(N5CC6CCC(C5)N6)nc(OCC56CCCN5CC(F)C6)nc4c3F)c12 (stereo unspecified) | 24.6% and 29.7% and 27.3% | 19.7% and 18.3% and 19.8% | 18.1% and 15.8% and 16.3% | 15% and 13.9% and 15.6% | 14.4% and 11.4% and 13.7% | 12.7% and 13.8% and 11% | < 31.6 nM | – | – | – | – | – | – | – | – | – | –
2 | C=CC(=O)N1CCN(c2nc(=O)n(-c3c(C)ccnc3C(C)C)c3nc(-c4c(O)cccc4F)c(F)cc23)C(C)C1 (stereo unspecified) | 105% and 104% and 110% | 103% and 99.2% and 98% | 108% (2×) and 115% | 113% and 97.7% and 121% | 118% and 115% and 113% | 109% and 106% and 105% | > 10000 nM | – | – | – | – | – | – | – | – | – | –
3 | C=CCn1c(=O)c2cnc(Nc3ccc(N4CCN(C)CC4)cc3)nc2n1-c1cccc(C(C)(C)O)n1 | 88.6% and 89.3% and 105% | 96.8% and 92.2% and 110% | 90.3% and 78.7% and 84.2% | 74.6% and 69.8% and 72.5% | – | – | > 1000 nM | 103% and 97% and 105% | 104% and 91.6% and 100% | – | – | – | – | – | – | – | –
4 | CC(=O)O[C@H]1C(=O)[C@@]2(C)[C@H]([C@H](OC(=O)c3ccccc3)[C@]3(O)C[C@H](OC(=O)[C@H](O)[C@@H](NC(=O)c4ccccc4)c4ccccc4)C(C)=C1C3(C)C)[C@]1(OC(C)=O)CO[C@@H]1C[C@@H]2O | – | – | – | – | – | – | > 3000 nM | – | – | 71.7% and 80.5% and 82.2% | 56% and 69.6% and 61.2% | 54.2% and 56.2% and 58.5% | 62% and 62.2% and 59.9% | 66.9% and 69% and 60% | 70.2% and 72.3% and 64.6% | – | –
5 | CC(C)n1c(=O)n(C)c2cnc3cc(F)c(-c4ccc(OCCCN5CCCCC5)nc4)cc3c21 | 93.3% and 103% and 119% | 88.1% and 91.7% and 92.8% | 98.6% and 105% and 99.7% | 110% and 102% and 97.5% | 96.3% and 110% and 87.4% | 87.1% and 91.8% and 85.5% | > 10000 nM | – | – | – | – | – | – | – | – | – | –
6 | CC1COCCN1c1cc(-c2ccnn2C)c2ccnc(-c3ccn[nH]3)c2n1 (stereo unspecified) | 94.9% and 97.6% and 88.8% | 89.1% (2×) and 80.8% | 71.1% and 68.5% and 77.8% | 63.7% and 58.2% and 58.9% | 49% and 54.1% and 49.1% | 56.3% and 58.4% and 50.5% | > 10000 nM and 5900 nM | – | – | – | – | – | – | – | – | – | –
7 | CC1COCCN1c1cc(C2(O)CC3CCC(C2)O3)c2cnn(-c3ccn[nH]3)c2n1 (stereo unspecified) | 85.2% and 93.5% and 88.1% | 80.7% and 83.5% and 80% | 65.9% and 63.9% and 67.3% | 56% and 53.3% and 57.5% | 47.1% and 48.7% and 44.4% | 35.8% and 33.2% and 36.5% | 1990 nM and 1720 nM and 1940 nM | – | – | – | – | – | – | – | – | – | –
8 | CC1COCCN1c1cc(C2(S(C)(=N)=O)CC2)nc(-c2ccnc3[nH]ccc23)n1 (stereo unspecified) | 105% and 93.7% and 91.8% | 102% and 97.1% and 94.4% | 90.2% and 91.5% and 105% | 88.6% and 97.4% and 88.8% | 76% and 82.6% and 74% | 73.1% and 68.3% and 65.9% | > 10000 nM | – | – | – | – | – | – | – | – | – | –
9 | CCCS(=O)(=O)Nc1ccc(F)c(C(=O)c2c[nH]c3ncc(-c4ccc(Cl)cc4)cc23)c1F | 109% and 96.3% and 112% | 112% and 102% and 110% | 129% and 120% and 116% | 158% and 156% and 128% | 187% and 182% and 192% | 34.7% and 43.6% and 56.4% | 8440 nM and 9190 nM and > 10000 nM | – | – | – | – | – | – | – | – | – | –
10 | CC[C@@]1(O)C(=O)OCc2c1cc1n(c2=O)Cc2cc3c(CN(C)C)c(O)ccc3nc2-1 | 72.9% and 81.9% and 79.4% | 59.6% and 68.9% and 54.6% | – | – | – | – | > 100 nM | 98.8% and 105% and 99.5% | 94.2% and 111% and 93.4% | – | – | – | – | – | – | 93.1% and 110% and 102% | 97.6% and 90% and 108%
11 | CCc1c2c(nc3ccc(O)cc13)-c1cc3c(c(=O)n1C2)COC(=O)[C@]3(O)CC | 55.4% and 52.2% and 41.7% | 45.9% and 44.3% and 37.6% | 24.9% and 35.3% and 28.6% | 7.27% and 9.92% and 8.91% | – | – | 47.1 nM and 38.3 nM and 19.1 nM | 79.8% and 73.5% and 71.1% | 59.2% and 56% and 49.9% | – | – | – | – | – | – | – | –
12 | CCc1cc2c(N3CCc4c(cc(Cn5ccnc5)cc4-c4cn(C)nc4C(F)(F)F)C3=O)cc(C)nc2c(OC)n1 | 102% and 78.7% and 85.8% | 92.1% and 90.3% and 81.5% | 89.2% and 94.7% and 93.9% | 95.1% and 94.6% and 98.4% | 102% and 105% (2×) | 97% and 99% and 107% | > 10000 nM | – | – | – | – | – | – | – | – | – | –
13 | CCc1cc2c(N3CCc4c(cc(Cn5ccnc5)cc4-c4cn(C)nc4C(F)(F)F)C3=O)ccnc2c(OC)n1 | 88.3% and 83.8% and 90.8% | 81.6% and 90.7% and 76.9% | 86.3% and 93.2% and 101% | 102% and 81.5% and 103% | 99.5% and 98.2% and 112% | 89% and 94.7% and 88.3% | > 10000 nM | – | – | – | – | – | – | – | – | – | –
